Tested on: PANC-1 (human pancreatic cancer-derived cell line)
Experiment: MTS assay on Panc-1 (human pancreas carcinoma cell line)
Format: cell-based
Conditions: 144 h; for inhibition at 0.3125 µM: read-out: Growth inhibition (%) 0.3125 μM; for IC50: PANC-1, MTS method, cell survival 6 days after exposure, 4-parameter logistic fit; for inhibition at 10 µM: read-out: Growth inhibition (%) 10 μM; for inhibition at 30 µM: read-out: Growth inhibition (%) 30 μM; for inhibition at 1 µM: read-out: Growth inhibition (%) 1 μM; for inhibition at 0.15625 µM: read-out: Growth inhibition (%) 0.15625 μM
Method in brief: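 PANC-1 cells in D-MEM + 10% FBS at 37 °C, 5% CO2 exposed to 2-fold serial DMSO dilutions of compound for 6 days. Survival read by MTS (492 minus 630 nm, blank-corrected) relative to DMSO control as 100%; mean of 3 runs, 4-parameter logistic fit.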

CC(C)(C)C[C@H]1C(=O)N([C@@H]2CCN(CCCCO)C2)C[C@@H]2N(C(=O)/C=C/c3nc4ccccc4s3)O[C@H](C[C@H]3C[C@@H]3CCc3ccccc3)C(=O)N21 [ID-104, (3R,6S,9aS)-1-((E)-3-(benzo[d]thiazol-2-yl)acryloyl)-8-((R)-1-(4-hydroxybutyl)pyrrolidin-3-yl)-6-neopentyl-3-(((1R,2S)-2-phenethylcyclopropyl)methyl)tetrahydropyrazino[2,1-c][1,2,4]oxadiazine-4,7(3H,6H)-dione]
inhibition at 0.3125 µM (PANC-1, MTS, 6 days): 30.1%

CC(C)C[C@H]1ON(C(=O)/C=C/c2ccccn2)[C@H]2CN(C3CCN(C4CCN(C(C)C)CC4)CC3)C(=O)[C@H](CC(C)C)N2C1=O [ID-40, (3R,6S,9aS)-3,6-diisobutyl-8-(1′-isopropyl-[1,4′-bipiperidin]-4-yl)-1-((E)-3-(pyridin-2-yl)acryloyl)tetrahydropyrazino[2,1-c][1,2,4]oxadiazine-4,7(3H,6H)-dione]
IC50: 4000 nM | inhibition at 10 µM (PANC-1, MTS, 6 days): 102%

CC(C)C[C@H]1ON(C(=O)/C=C/c2cc3n(n2)CCOC3)[C@H]2CN(C3CCN(C)CC3)C(=O)[C@H](CC(C)C)N2C1=O [ID-49, (3R,6S,9aS)-1-((E)-3-(6,7-dihydro-4H-pyrazolo[5,1-c][1,4]oxazin-2-yl)acryloyl)-3,6-diisobutyl-8-(1-methylpiperidin-4-yl)tetrahydropyrazino[2,1-c][1,2,4]oxadiazine-4,7 (3H, 6H)-dione]
inhibition at 10 µM (PANC-1, MTS, 6 days): 74.9%

CC(C)C[C@H]1ON(C(=O)/C=C/c2ccc3ccccc3c2)[C@H]2CN(CCC(N)=O)C(=O)[C@H](CC(C)C)N2C1=O [ID-24, 3-((3R,6S,9aS)-3,6-diisobutyl-1-((E)-3-(naphthalen-2-yl)acryloyl)-4,7-dioxohexahydropyrazino[2,1-c] [1,2,4]oxadiazin-8(1H)-yl)propanamide]
IC50: 15800 nM | inhibition at 30 µM (PANC-1, MTS, 6 days): 102%

CCC(CC)C[C@H]1ON(C(=O)/C=C/c2cnc3ccccc3n2)[C@H]2CN([C@@H]3CCN(CCCCO)C3)C(=O)[C@H](CC(C)(C)C)N2C1=O [ID-107, (3R, 6S, 9aS)-3-(2-ethylbutyl)-8-((R)-1-(4-hydroxybutyl)pyrrolidin-3-yl)-6-neopentyl-1-((E)-3-(quinoxalin-2-yl)acryloyl)tetrahydropyrazino[2,1-c][1,2,4]oxadiazine-4,7(3H,6H)-dione]
IC50: 200 nM | inhibition at 0.3125 µM (PANC-1, MTS, 6 days): 94.3% | inhibition at 1 µM (PANC-1, MTS, 6 days): 98.5%

CC(C)C[C@H]1ON(C(=O)/C=C/c2nnc(C3CC3)s2)[C@H]2CN(CCC(N)=O)C(=O)[C@H](CC(C)C)N2C1=O [ID-29, 3-((3R,6S,9aS)-1-((E)-3-(5-cyclopropyl-1,3,4-thiadiazol-2-yl)acryloyl)-3,6-diisobutyl-4,7-dioxohexahydropyrazino[2,1-c][1,2,4]oxadiazin-8(1H)-yl)propanamide]
IC50: 2300 nM | inhibition at 10 µM (PANC-1, MTS, 6 days): 101%

CSc1nccc(/C=C/C(=O)N2O[C@H](CC(C)C)C(=O)N3[C@@H]2CN([C@H]2CCN(CCCCO)C2)C(=O)[C@@H]3CC(C)(C)C)n1 [ID-78, (3R,6S,9aS)-8-((S)-1-(4-hydroxybutyl)pyrrolidin-3-yl)-3-isobutyl-1-((E)-3-(2-(methylthio)pyrimidin-4-yl)acryloyl)-6-neopentyltetrahydropyrazino[2,1-c][1,2,4]oxadiazine-4,7(3H,6H)-dione]
inhibition at 0.3125 µM (PANC-1, MTS, 6 days): 41.5%

CC(C)C[C@H]1ON(C(=O)/C=C/c2nc(C#CC3CCOCC3)cs2)[C@H]2CN([C@@H]3CCN(CCCCO)C3)C(=O)[C@H](CC(C)(C)C)N2C1=O [ID-94, (3R,6S,9aS)-8-((R)-1-(4-hydroxybutyl)pyrrolidin-3-yl)-3-isobutyl-6-neopentyl-1-((E)-3-(4-((tetrahydro-2H-pyran-4-yl)ethynyl)thiazol-2-yl)acryloyl)tetrahydropyrazino[2,1-c] [1,2,4]oxadiazine-4,7-(3H,6H)-dione]
inhibition at 0.15625 µM (PANC-1, MTS, 6 days): 42.3%

CC(C)C[C@H]1ON(C(=O)/C=C/c2nc(C#CCCCCCO)cs2)[C@H]2CN([C@@H]3CCN(CCCCO)C3)C(=O)[C@H](CC(C)(C)C)N2C1=O [ID-13, (3R,6S,9aS)-8-((R)-1-(4-hydroxybutyl)pyrrolidin-3-yl)-1-((E)-3-(4-(7-hydroxyhept-1-yn-1-yl)thiazol-2-yl)acryloyl)-3-isobutyl-6-neopentyltetrahydropyrazino[2,1-c][1,2,4]oxadiazine-4,7(3H,6H)-dione]
IC50: 140 nM

CC(C)C[C@H]1ON(C(=O)/C(Cl)=C/c2ccccn2)[C@H]2CN(C3CCN(C)CC3)C(=O)[C@H](CC(C)C)N2C1=O [ID-47, (3R,6S,9aS)-1-((Z)-2-chloro-3-(pyridin-2-yl)acryloyl)-3,6-diisobutyl-8-(1-methylpiperidin-4-yl)tetrahydropyrazino[2,1-c][1,2,4]oxadiazine-4,7(3H,6H)-dione]
IC50: 10000 nM | inhibition at 10 µM (PANC-1, MTS, 6 days): 66.6%

CC(C)C[C@H]1ON(C(=O)/C=C/c2nc3cc(OCCCO)ccc3s2)[C@H]2CN(C3CCN(C(C)C)CC3)C(=O)[C@H](CC(C)(C)C)N2C1=O [ID-101, (3R,6S,9aS)-1-((E)-3-(5-(3-hydroxypropoxy)benzo[d]thiazol-2-yl)acryloyl)-3-isobutyl-8-(1-isopropylpiperidin-4-yl)-6-neopentyltetrahydropyrazino[2,1-c][1,2,4]oxadiazine-4,7(3H,6H)-dione]
inhibition at 0.15625 µM (PANC-1, MTS, 6 days): 65.6%

CC(C)C[C@H]1ON(C(=O)/C=C/c2nc3ccccc3s2)[C@H]2CN([C@H]3CCN(CCCCO)C3)C(=O)[C@H](CC(C)(C)C)N2C1=O [ID-5, (3R,6S,9aS)-1-((E)-3-(benzo[d]thiazol-2-yl)acryloyl)-8-((S)-1-(4-hydroxybutyl)pyrrolidin-3-yl)-3-isobutyl-6-neopentyltetrahydropyrazino[2,1-c][1,2,4]oxadiazine-4,7(3H,6H)-dione]
IC50: 180 nM

CC(=O)N1CCC(N2CCC(N3C[C@@H]4N(C(=O)/C=C/c5ccccn5)O[C@H](CC(C)C)C(=O)N4[C@@H](CC(C)C)C3=O)CC2)CC1 [ID-41, (3R,6S,9aS)-8-(1′-acetyl-[1,4′-bipiperidin]-4-yl)-3,6-diisobutyl-1-((E)-3-(pyridin-2-yl)acryloyl)tetrahydropyrazino[2,1-c][1,2,4]oxadiazine-4,7(3H,6H)-dione]
IC50: 6300 nM | inhibition at 10 µM (PANC-1, MTS, 6 days): 98.5%

CC(C)C[C@H]1ON(C(=O)/C=C/c2ccccn2)[C@H]2CN(CCC(=O)N3CCNCC3)C(=O)[C@H](CC(C)C)N2C1=O [ID-21, (3R,6S,9aS)-3,6-diisobutyl-8-(3-oxo-3-(piperazin-1-yl)propyl)-1-((E)-3-(pyridin-2-yl)acryloyl)tetrahydropyrazino[2,1-c][1,2,4]oxadiazine-4,7 (3H, 6H)-dione]
IC50: 19800 nM | inhibition at 30 µM (PANC-1, MTS, 6 days): 99.5%

CC(C)(C)C[C@H]1C(=O)N([C@@H]2CCN(CCCCO)C2)C[C@@H]2N(C(=O)/C=C/c3cnc4ccccc4n3)O[C@H](CCCCNC(=O)OCc3ccccc3)C(=O)N21 [ID-105, benzyl (4-((3R,6S,9aS)-8-((R)-1-(4-hydroxybutyl)pyrrolidin-3-yl)-6-neopentyl-4,7-dioxo-1-((E)-3-(quinoxalin-2-yl)acryloyl)octahydropyrazino[2,1-c][1,2,4]oxadiazin-3-yl)butyl)carbamate]
inhibition at 30 µM (PANC-1, MTS, 6 days): 98.3%

CC(C)C[C@H]1ON(C(=O)/C=C/c2nc(C#CCCCCO)cs2)[C@H]2CN([C@H]3CCN(CCCCO)C3)C(=O)[C@H](CC(C)(C)C)N2C1=O [ID-9, (3R,6S,9aS)-8-((S)-1-(4-hydroxybutyl)pyrrolidin-3-yl)-1-((E)-3-(4-(6-hydroxyhex-1-yn-1-yl)thiazol-2-yl)acryloyl)-3-isobutyl-6-neopentyltetrahydropyrazino[2,1-c][1,2,4]oxadiazine-4,7(3H,6H)-dione]
IC50: 99 nM

CC(C)(C)C[C@H]1C(=O)N(CC2CCNCC2)C[C@@H]2N(C(=O)/C=C/c3cnc4ccccc4n3)O[C@H](CC3CCCCC3)C(=O)N21 [ID-26, (3R,6S,9aS)-3-(cyclohexylmethyl)-6-neopentyl-8-(piperidin-4-ylmethyl)-1-((E)-3-(quinoxalin-2-yl)acryloyl)tetrahydropyrazino[2,1-c][1,2,4]oxadiazine-4,7(3H,6H)-dione]
inhibition at 0.625 µM (PANC-1, MTS, 6 days, 0.625 μM, read-out: Growth inhibition (%) 0.625 μM): 4.2% | inhibition at 1 µM (PANC-1, MTS, 6 days): 96.1%

C#Cc1sc(/C=C/C(=O)N2O[C@H](CC(C)C)C(=O)N3[C@@H]2CN(C2CCN(C)CC2)C(=O)[C@@H]3CC(C)(C)C)nc1C#CCCCO [ID-103, (3R,6S,9aS)-1-((E)-3-(5-ethynyl-4-(5-hydroxypent-1-yn-1-yl)thiazol-2-yl)acryloyl)-3-isobutyl-8-(1-methylpiperidin-4-yl)-6-neopentyltetrahydropyrazino[2,1-c][1,2,4]oxadiazine-4,7 (3H, 6H)-dione]
inhibition at 0.3125 µM (PANC-1, MTS, 6 days): 99.6%

CC(C)C[C@H]1ON(C(=O)/C=C/c2nc3ccccc3s2)[C@H]2CN(C3CCN(C)CC3)C(=O)[C@H](CC(C)C)N2C1=O [ID-2, (3R, 6S, 9aS)-1-((E)-3-(benzo[d]thiazol-2-yl)acryloyl)-3,6-diisobutyl-8-(1-methylpiperidin-4-yl) tetrahydropyrazino[2,1-c] [1,2,4]oxadiazine-4,7(3H,6H)-dione]
IC50: 270 nM

CC(C)C[C@@H]1ON(C(=O)/C=C/c2nc3ccccc3s2)[C@@H]2CN([C@@H]3CCN(CCCCO)C3)C(=O)[C@H](CC(C)(C)C)N2C1=O [ID-95, (3S,6S,9aR)-1-((E)-3-(benzo[d]thiazol-2-yl)acryloyl)-8-((R)-1-(4-hydroxybutyl)pyrrolidin-3-yl)-3-isobutyl-6-neopentyltetrahydropyrazino[2,1-c][1,2,4]oxadiazine-4,7(3H,6H)-dione]
IC50: 1400 nM

— patent US20230265104A1, “NOVEL HETEROCYCLIC COMPOUNDS” (PRISM BIOLAB CO., LTD., priority 2020, published 2023)
